Laboratory results taken from the supplement of paper PMC10307832.

Compound: COc1cccc2cc(-c3nc([C@H]4CC[C@H](C(=O)O)CC4)n4ncnc(N)c34)[nH]c12 [OSI-027] + CC1(C)CCC(c2ccc(Cl)cc2)=C(CN2CCN(c3ccc(C(=O)NS(=O)(=O)c4ccc(N[C@H](CCN5CCOCC5)CSc5ccccc5)c(S(=O)(=O)C(F)(F)F)c4)cc3)CC2)C1 [Navitoclax] (partner 0.5 µM)
Test: relative viability (nuclei count vs DMSO), 5 days (fraction); higher = more cells survive
Procedure, shortened: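 Relative viability divides the nuclei count in treated wells by that in vehicle wells. Lung cancer cell lines were seeded in 1536-well plates, dosed by pin tool the next day, and fixed and stained after 5 days in one step with final 0.05% Triton X-100, 1% formaldehyde and 1 ug/ml Hoechst. Dosing was a single drug or a fixed anchor-drug dose plus five library-drug doses (not always all listed) in √10 steps, and values are medians of duplicate plates imaged at 4×.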

Cell Line	relative viability (first compound 0.01 µM)	relative viability (first compound 0.03162 µM)	relative viability (first compound 0.1 µM)	relative viability (first compound 0.3162 µM)	relative viability (first compound 1 µM)
NCI-H1975	1.19	1.11	1.16	1.02	0.508
NCI-H1993	0.89	0.863	0.659	0.502	0.719
NCI-H2009	1.16	1.15	1.07	1.07	0.619
NCI-H2023	0.982	0.99	0.964	0.708	0.255
NCI-H2085	1.11	1.12	1.1	0.931	0.7
NCI-H2087	1.09	0.998	0.8	0.537	0.353
NCI-H2126	0.885	0.856	0.818	0.679	0.801
NCI-H2170	0.651	0.565	0.471	0.535	0.221
NCI-H2228	0.978	1.34	0.81		0.303
NCI-H2347	0.916	0.764	0.609	0.626	0.333
NCI-H2405	0.858	0.791	0.768	0.636	0.384
NCI-H3122	1.03	1.14	1.13	1.03	0.334
PC-3 [JPC-3]	0.822	0.765	0.772	0.739	0.547
PC-14	1.02	0.998	1.05	1.05	0.939
RERF-LC-KJ	0.795	1	0.839	0.672	0.289
SK-LU-1	0.743	0.869	0.679	0.453	0.259
SK-MES-1	1.27	1.23	1.17	0.974	0.484
SW 1573	0.889	1.05	0.902	0.757	0.504
